{
  "source": "the supplement of paper PMC10307832",
  "test_in_all_cases": "relative viability (nuclei count vs DMSO), 5 days (fraction); higher = more cells survive",
  "key": {"NCI-H2009": {"system": "NCI-H2009", "outline": "(§1)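 The day after seeding in 1536-well plates, lung cancer cell lines were treated by pin tool with a single drug, or with a fixed anchor-drug dose together with five library-drug doses (not always all listed) in √10 steps. After 5 days, a combined fix-and-stain solution (final 0.05% Triton X-100, 1% formaldehyde, 1 ug/ml Hoechst) was added. Nuclei counted on 4× images gave relative viability as treated counts over vehicle counts, reported as the median of duplicate plates.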"}, "PC-3 [JPC-3]": {"system": "PC-3 [JPC-3]", "outline": "as §1"}, "NCI-H3122": {"system": "NCI-H3122", "outline": "as §1"}, "NCI-H596": {"system": "NCI-H596", "outline": "as §1"}, "HARA": {"system": "HARA", "outline": "as §1"}, "NCI-H1944": {"system": "NCI-H1944", "outline": "as §1"}, "NCI-H1792": {"system": "NCI-H1792", "outline": "as §1"}, "NCI-H1993": {"system": "NCI-H1993", "outline": "as §1"}, "NCI-H1793": {"system": "NCI-H1793", "outline": "as §1"}, "NCI-H2170": {"system": "NCI-H2170", "outline": "as §1"}, "SW 900": {"system": "SW 900", "outline": "as §1"}, "A-427": {"system": "A-427", "outline": "as §1"}},
  "data": [
    {"smiles": "C=C1C(=O)O[C@@H](CCCCCCCC)[C@@H]1C(=O)O", "note": "[C-75] + CCNC(=O)c1noc(-c2cc(C(C)C)c(O)cc2O)c1-c1ccc(CN2CCOCC2)cc1 [Luminespib] (partner 0.01 µM)", "values": [
      {"measurement": "relative viability", "setting": "NCI-H2009; first compound 0.08 µM", "value": 1.02},
      {"measurement": "relative viability", "setting": "NCI-H2009; first compound 0.253 µM", "value": 1.05},
      {"measurement": "relative viability", "setting": "NCI-H2009; first compound 0.8 µM", "value": 1},
      {"measurement": "relative viability", "setting": "NCI-H2009; first compound 2.53 µM", "value": 0.999},
      {"measurement": "relative viability", "setting": "NCI-H2009; first compound 8 µM", "value": 0.793},
      {"measurement": "relative viability", "setting": "PC-3 [JPC-3]; first compound 0.08 µM", "value": 0.678},
      {"measurement": "relative viability", "setting": "PC-3 [JPC-3]; first compound 0.253 µM", "value": 0.667},
      {"measurement": "relative viability", "setting": "PC-3 [JPC-3]; first compound 0.8 µM", "value": 0.739},
      {"measurement": "relative viability", "setting": "PC-3 [JPC-3]; first compound 2.53 µM", "value": 0.533},
      {"measurement": "relative viability", "setting": "PC-3 [JPC-3]; first compound 8 µM", "value": 0.895},
      {"measurement": "relative viability", "setting": "NCI-H3122; first compound 0.08 µM", "value": 0.0952},
      {"measurement": "relative viability", "setting": "NCI-H3122; first compound 0.253 µM", "value": 0.128},
      {"measurement": "relative viability", "setting": "NCI-H3122; first compound 0.8 µM", "value": 0.0733},
      {"measurement": "relative viability", "setting": "NCI-H3122; first compound 2.53 µM", "value": 0.0938},
      {"measurement": "relative viability", "setting": "NCI-H3122; first compound 8 µM", "value": 0.131},
      {"measurement": "relative viability", "setting": "NCI-H596; first compound 0.08 µM", "value": 0.854},
      {"measurement": "relative viability", "setting": "NCI-H596; first compound 0.253 µM", "value": 0.968},
      {"measurement": "relative viability", "setting": "NCI-H596; first compound 0.8 µM", "value": 0.937},
      {"measurement": "relative viability", "setting": "NCI-H596; first compound 2.53 µM", "value": 0.939},
      {"measurement": "relative viability", "setting": "NCI-H596; first compound 8 µM", "value": 0.957},
      {"measurement": "relative viability", "setting": "HARA; first compound 0.08 µM", "value": 0.684},
      {"measurement": "relative viability", "setting": "HARA; first compound 0.253 µM", "value": 0.684},
      {"measurement": "relative viability", "setting": "HARA; first compound 0.8 µM", "value": 0.683},
      {"measurement": "relative viability", "setting": "HARA; first compound 2.53 µM", "value": 0.712},
      {"measurement": "relative viability", "setting": "HARA; first compound 8 µM", "value": 0.612},
      {"measurement": "relative viability", "setting": "NCI-H1944; first compound 0.08 µM", "value": 0.777},
      {"measurement": "relative viability", "setting": "NCI-H1944; first compound 0.253 µM", "value": 0.642},
      {"measurement": "relative viability", "setting": "NCI-H1944; first compound 0.8 µM", "value": 0.684},
      {"measurement": "relative viability", "setting": "NCI-H1944; first compound 8 µM", "value": 0.761},
      {"measurement": "relative viability", "setting": "NCI-H1792; first compound 0.08 µM", "value": 0.423},
      {"measurement": "relative viability", "setting": "NCI-H1792; first compound 0.253 µM", "value": 0.484},
      {"measurement": "relative viability", "setting": "NCI-H1792; first compound 0.8 µM", "value": 0.514},
      {"measurement": "relative viability", "setting": "NCI-H1792; first compound 2.53 µM", "value": 0.331},
      {"measurement": "relative viability", "setting": "NCI-H1792; first compound 8 µM", "value": 0.522},
      {"measurement": "relative viability", "setting": "NCI-H1993; first compound 0.08 µM", "value": 0.988},
      {"measurement": "relative viability", "setting": "NCI-H1993; first compound 0.253 µM", "value": 0.806},
      {"measurement": "relative viability", "setting": "NCI-H1993; first compound 0.8 µM", "value": 0.787},
      {"measurement": "relative viability", "setting": "NCI-H1993; first compound 2.53 µM", "value": 0.875},
      {"measurement": "relative viability", "setting": "NCI-H1993; first compound 8 µM", "value": 0.83},
      {"measurement": "relative viability", "setting": "NCI-H1793; first compound 0.08 µM", "value": 0.18},
      {"measurement": "relative viability", "setting": "NCI-H1793; first compound 0.253 µM", "value": 0.148},
      {"measurement": "relative viability", "setting": "NCI-H1793; first compound 0.8 µM", "value": 0.141},
      {"measurement": "relative viability", "setting": "NCI-H1793; first compound 2.53 µM", "value": 0.264},
      {"measurement": "relative viability", "setting": "NCI-H1793; first compound 8 µM", "value": 0.224},
      {"measurement": "relative viability", "setting": "NCI-H2170; first compound 0.08 µM", "value": 0.551},
      {"measurement": "relative viability", "setting": "NCI-H2170; first compound 0.253 µM", "value": 0.599},
      {"measurement": "relative viability", "setting": "NCI-H2170; first compound 0.8 µM", "value": 0.785},
      {"measurement": "relative viability", "setting": "NCI-H2170; first compound 2.53 µM", "value": 0.407},
      {"measurement": "relative viability", "setting": "NCI-H2170; first compound 8 µM", "value": 0.669},
      {"measurement": "relative viability", "setting": "SW 900; first compound 0.08 µM", "value": 0.169},
      {"measurement": "relative viability", "setting": "SW 900; first compound 0.253 µM", "value": 0.191},
      {"measurement": "relative viability", "setting": "SW 900; first compound 0.8 µM", "value": 0.163},
      {"measurement": "relative viability", "setting": "SW 900; first compound 2.53 µM", "value": 0.175},
      {"measurement": "relative viability", "setting": "SW 900; first compound 8 µM", "value": 0.206},
      {"measurement": "relative viability", "setting": "A-427; first compound 0.08 µM", "value": 0.931},
      {"measurement": "relative viability", "setting": "A-427; first compound 0.253 µM", "value": 0.788}
    ]}
  ]
}
